The values that follow are results of earlier work, collected in US20230330191A1, “METHODS OF STIMULATING BONE GROWTH WITH ABALOPARATIDE AND DENOSUMAB” (Radius Health, Inc., priority 2020, published 2023).

Series [1] relates to RANKL:OPG ratio. Conditions: Makino, CTI 2018.
The conditions of series [2]: in vivo.
The test system of series [3] is ovariectomy-induced osteopenia animal models.
The conditions of series [4]: in vivo. The source holds these as a separate data set.
For series [5], the system named is women.

“[Glu22,25, Leu23,28,31, Aib29, Lys26,30]hPTHrP(1-34)NH2 [abaloparatide]”: the “RANKL and OPG expression, RANKL:OPG ratio” value in series [1] is “upregulates RANKL and reduces OPG, increasing the RANKL:OPG ratio”. The “incidence of the most common adverse reactions (hypercalciuria, dizziness, nausea, headache, palpitations, fatigue, upper abdominal pain, vertigo)” value in series [2] is on record as > 2%. Also, the “bone loss (bone anabolic activity)” value in series [3] was “complete reversal of bone loss”. Moreover, in series [4], the “increases in BMD compared with cathepsin K inhibitor drugs or PTH-like drugs such as teriparatide” value is “substantially faster and greater”; the “potential to induce hypercalcemia compared to teriparatide” value was “lower potential to induce hypercalcemia”.

“Denosumab: fully human monoclonal IgG antibody with affinity and specificity for human receptor activator of nuclear factor kappa-B ligand (RANKL)”: the “effects of denosumab withdrawal on bone” value in series [5] (after withdrawal (Cummings JBMR 2017)) was “dramatic increased bone remodeling, rapid prominent bone loss, and multiple vertebral fractures”.

With `CC[C@H](C)[C@H](NC(=O)[C@H](CCC(=O)O)NC(=O)[C@H](CO)NC(=O)[C@@H](NC(=O)[C@@H](N)CO)C(C)C)C(=O)N[C@@H](CCC(N)=O)C(=O)N[C@@H](CC(C)C)C(=O)N[C@@H](CCSC)C(=O)N[C@@H](Cc1cnc[nH]1)C(=O)N[C@@H](CC(N)=O)C(=O)N[C@@H](CC(C)C)C(=O)NCC(=O)N[C@@H](CCCCN)C(=O)N[C@@H](Cc1cnc[nH]1)C(=O)N[C@@H](CC(C)C)C(=O)N[C@@H](CC(N)=O)C(=O)N[C@@H](CO)C(=O)N[C@@H](CCSC)C(=O)N[C@@H](CCC(=O)O)C(=O)N[C@@H](CCCN=C(N)N)C(=O)N[C@H](C(=O)N[C@@H](CCC(=O)O)C(=O)N[C@@H](Cc1c[nH]c2ccccc12)C(=O)N[C@@H](CC(C)C)C(=O)N[C@@H](CCCN=C(N)N)C(=O)N[C@@H](CCCCN)C(=O)N[C@@H](CCCCN)C(=O)N[C@@H](CC(C)C)C(=O)N[C@@H](CCC(N)=O)C(=O)N[C@@H](CC(=O)O)C(=O)N[C@H](C(=O)N[C@@H](Cc1cnc[nH]1)C(=O)N[C@@H](CC(N)=O)C(=O)N[C@@H](Cc1ccccc1)C(=O)O)C(C)C)C(C)C` [teriparatide], the “total hip BMD” value in series [5] (2 years of teriparatide after 2 years of denosumab, versus mean BMD at end of denosumab treatment (Leder, Lancet 2015)) is reported as “remains below the mean BMD”. Moreover, the “BMD in the hip and femoral neck” value in series [5] (switching from denosumab to teriparatide) is “substantial BMD loss”.
